# From US20220218652A1, “METHODS OF TREATING CYTOKINE RELEASE SYNDROME” (The General Hospital Corporation, priority 2018, published 2022)
# Experiments:
# [1] = system: BV2-CD33wT cells; experiment: Aβ42 uptake by ELISA in BV2 cells stably expressing CD33; type: cell-based
# Procedure: (§1) Naive BV2 microglial cells were treated with DMSO (control) or cromolyn (500 μM) for 16 hours. Afterwards, the cells were incubated with fluoresceraly-labeled A1342 (red) and DMSO or cromolyn for 2 hours. After incubation, the cells were labeled with a plasma membrane dye (PM, green) and imaged. BV2 microglial cells or BV2 cells stably expressing CD33 (BV2-CD33wT) were treated with DMSO or different concentrations of cromolyn for 16 hours. Then, cells were incubated with soluble untagged Aβ42 and DMSO or cromolyn for 2 hours and collected for ELBA analysis.
# [2] = system: BV2 microglial cells; experiment: Aβ42 uptake by ELISA and confocal microscopy in naive BV2 microglial cells; type: cell-based
# Procedure: as §1
# [3] = system: TgSOD1 mice; experiment: Meso Scale Discovery multi-spot cytokine assay, spinal cord lysates of TgSOD1 mice; type: in vivo; conditions: TgSOD1-Cromolyn vs TgSOD1-Vehicle; cromolyn sodium 6.3 mg/kg i.p. once daily, 5 days per week from P60; p=0.0273
# Procedure: (§2) Cromolyn. sodium was provide by AZ Therapies and dissolved in PBS. 100 mM solution was used for in vivo experiments. Dulbecco's PBS was used to dilute the solution for intraperitoneal injections for a final dose of 6.3 mg/kg.
# (§3) 149 male and female age- and litter-matched transgenic TgSOD1^G93A and wild-type WtSOD1^G93A mice were used with the following breakdown: Females (19 WtSOD1-Vehicle, 17 WtSOD1-Cromolyn, 19 TgSOD1-Vehicle, and 17 TgSOD1-Cromolyn) and Males (18 WtSOD1-Vehicle, 21 WtSOD1-Cromolyn, 21 TgSOD1-Vehicle, 17 TgSOD1-Cromolyn). The mice received once daily injections of either vehicle or cromolyn sodium (6.3 mg/kg, […] i.p.) 5 days per week starting at P60 until euthanasia.
# B6SJL-Tg (SOD1 G93A)1Gur/J transgenic male mice were obtained from Jackson Laboratory and bred with C57BL/6 female mice to obtain wild-type WtSOD1 and mutant transgenic TgSOD1^G93A-expressing mice. To determine mouse genotype, RNA extraction and complimentary DNA (cDNA) synthesis was performed from tail biopsies acquired at postnatal day 28-40 followed by quantitative real-time PCR (qRT-PCR) using primers for the mutant G93A SOD1 gene (GGGAAGCTGTTGTCCCA AG and […])(SEQ ID NO: 1 and SEQ ID NO: 2, respectively). Both age- and litter-matched WtSOD1 and TgSOD1 male. and female mice were used for all studies as described below. […]
# [4] = system: TgSOD1 mice; experiment: Meso Scale Discovery multi-spot cytokine assay, plasma of TgSOD1 mice; type: in vivo; conditions: 6.3 mg/kg i.p.
# Procedure: as §2, §3
# B6SJL-Tg (SOD1 G93A)1Gur/J transgenic male mice were obtained from Jackson Laboratory and bred with C57BL/6 female mice to obtain wild-type WtSOD1 and mutant transgenic TgSOD1^G93A-expressing mice. To determine mouse genotype, RNA extraction and complimentary DNA (cDNA) synthesis was performed from tail biopsies acquired at postnatal day 28-40 followed by quantitative real-time PCR (qRT-PCR) using primers for the mutant G93A SOD1 gene (GGGAAGCTGTTGTCCCA AG and […])(SEQ ID NO: 1 and SEQ ID NO: 2, respectively). Both age- and litter-matched WtSOD1 and TgSOD1 male. and female mice were used for all studies as described below.
# Spinal cord frozen tissue was homogenized in ice-cold RIPA buffer (Thermo Fisher Scientific, #8990) supplemented with protease inhibitor cocktail (Thermo Fisher Scientific, #78430). Samples were centrifuged at 45,000 g for 30 minutes at 4° C. using an Optima TL ultracentrifuge and a TLA 120.2 rotor (Beckman Coulter). Expression levels of the cytokines were assessed in the supernatants derived from spinal cord tissue or in the plasma, using an electrocheiniluminescence-based multi-array method and MESO Quickplex SQ 120 system (MSD, Rockville, Md., USA). The 96-well V-FLEX Proinflammatory Mouse 1 Kit (Meso Scale Discovery, #K15048D) was used to measure simultaneously IL-1β, IL-2, IL-5, IL-6, IL-10, and TNFα, following the manufacturer's instructions. Briefly, samples were diluted in the calibrator and added to the plate coated with an array of cytokine capture antibodies. Samples were incubated. in the plate for 2 hours with shaking at room temperature, followed by washes with the wash buffer provided in the kit. The detection antibody solution was added to each well and the plate was incubated for 2 hours. The plate was washed with the wash buffer and the 2× Read Buffer T was added. The signal was immediately measured on a MESO QuickIlex SQ 120 instrument and was analyzed using the DISCOVERY WORKBENCH 4.0 software (Meso Scale Diagnostics, LLC., Rockville, Md., USA). Protein concentrations in the supernatants or the plasma samples were measured using the Pierce BCA protein assay kit (Thermo Scientific). Values in the graphs represent levels of cytokines normalized to the corresponding protein concentrations.
# Data are presented as median values. Box plots are used for graphical representation of population data with the central line representing the median, the edges representing the interquartile ranges, and the whiskers representing 10-90th percentiles. Data are also represented as medians±interquartile ranges or percent values. Sample sizes are included in the figure legends. Comparisons for unrelated samples were performed using a two-way ANOVA followed by Tukey's or Sidak's multiple comparison's test or a one-way ANOVA test followed by Tukey's multiple comparison post-tests at a significance level (a) of 0.05. For p<0.05 and >0.00001, exact P values (two-tailed) are reported.
# Additionally, levels of L-1β, IL-2, IL-5, IL-6, IL-10, and TNFα were assessed in the plasma of a subset of mice (Females: 13 WtSOD1-Vehicle, 15 WtSOD1-Cromolyn, 6 TgSOD1-Vehicle, and 6 TgSOD1-Cromolyn; and Males: 14 WtSOD1-Vehicle, 10 WtSOD1-Cromolyn, 6 TgSOD1-Vehicle, 3 TgSOD1-Cromolyn).
# [5] = 16 hours pretreatment, then 2 hours with Aβ42, vs vehicle (DMSO), ELISA
# [6] = different concentrations of cromolyn
structure (smiles),measurement,setting,value
"O=C(O)c1cc(=O)c2c(OCC(O)COc3cccc4oc(C(=O)O)cc(=O)c34)cccc2o1 [cromolyn, cromolyn sodium]",internalized Aβ42 in BV2-CD33wT cells,[1]; [5],increased levels of internalized Aβ42
same,"dose dependence of Aβ42 uptake modulation, BV2-CD33wT cells",[1]; [6],dose-dependent effect
same,Aβ42 uptake in naive BV2 microglial cells,[2]; [5],increased Aβ42 uptake
same,"dose dependence of Aβ42 uptake modulation, naive BV2 cells",[2]; [6],dose-dependent effect
same,TNFα level in spinal cord,[3],significant decrease
same,IL-10 level in plasma,"[4]; TgSOD1-Cromolyn vs TgSOD1-Vehicle, p=0.0095",significantly decreased
same,IL-2 level in plasma,"[4]; TgSOD1-Cromolyn vs TgSOD1-Vehicle, p=0.0211",significantly decreased
same,IL-6 level in plasma,"[4]; TgSOD1-Cromolyn vs TgSOD1-Vehicle, p=0.0273",significantly decreased
same,TNFα level in plasma,"[4]; TgSOD1-Cromolyn vs TgSOD1-Vehicle, p=0.110",trend towards a decrease
same,IL-1β level in plasma,[4]; between groups,no statistically significant difference
same,IL-5 level in plasma,[4]; between groups,no statistically significant difference
